In patent publication US20070264646A1, “Hbv Particles Containing Hbv-Rna” (Advanced Life Science Institute, Inc., priority 2003, published 2007):

Columns and labels:
[1] = system: HBV-RNA in the serum; assay: Amount of HBV-RNA in the serum, estimated by subtracting HBV-DNA from HBV gene; type: in vivo, HBV patient; conditions: one month before administration 5.4 × 10^6
Procedure: In order to measure the amount of HBV gene in the serum, the step of the reverse transcriptase reaction was added. To 10 μl of the HBV gene solution, 1 μl of 20 mM dNTP Mix (10 mM dATP, 10 mM dGTP, 10 mM dCTP, 10 mM dTTP) and 0.2 μl of 10 μM HBS-R primer were mixed, and after incubated at 65° C. for 5 minutes, it was quickly cooled on ice. Four μl of 5× reverse transcription buffer [250 mM Tris-HCl (pH 8.3), 375 mM KCl, 15 mM MgCl2], 0.2 μl of 0.1 M DTT, 0.6 μl of RNase inhibitor (40 units/μl) and 3 μl of sterile water were mixed and then subjected to an annealing reaction at 42° C. for 2 minutes, to which 1 μl of the reverse transcriptase (200 units/μl) was added to prepare a 20 μl of a reaction mixture, which was subjected to a reverse transcription reaction at 42° C. for 50 minutes and the inactivation of the reverse transcriptase was performed at 70° C. for 15 minutes.
By applying 4 μl of this reaction mixture to the above HBV-DNA quantification system, the amount of the HBV gene in the serum, i.e. the total amount of HBV-DNA and RNA in the serum, can be measured. Also, by subtracting the amount of HBV-DNA from the amount of the HBV gene, the amount of HBV-RNA in the serum can be estimated (Table 1).

[2] = system: HBc antigen; assay: Measurement of the amount of HBc antigen (sandwich immunoassay, luminescence); type: in vivo, HBV patient; conditions: serum, before administration 610
Description: Three monoclonal antibodies HB44 (recognition site: amino acids 31-49), HB61 (recognition site: amino acids 131-140) and HB114 (recognition site: amino acids 1-81) that react both HBc antigen and HBe antigen were coated and immobilized to a microtiter plate. After washing with PBS, it was blocked with a solution containing casein and, after removing the solution, it was dried.
Fifty μl of the pretreatment solution (15% sodium dodecyl sulfate [SDS], 3% CHAPS, 1% hexadecyltrimethyl ammonium bromide) was mixed with 100 μl of the sample (serum, plasma etc.) and treated at 70° C. for 30 minutes.
To each antibody-immobilized well, 100 μl of the reaction buffer (pH 8.0) and 50 μl of the pretreated sample were added, and the plate was reacted under gentle stirring at room temperature for 2 hours.
After washing the wells, 100 μl of a solution containing alkaline phosphatase-labelled HB50 (recognition site: amino acids 168-176) monoclonal antibody was added to each well, and the plate was incubated at room temperature for 1 hour.
After washing the wells, 100 μl of the CDP Star with Emerald II (Applied Biosystems) was added, and the intensity of luminescence after reacting at room temperature for 20 minutes was measured using a microtiter plate luminometer. It was compared to the intensity of luminescence of the standard antigen and the concentration of HBc antigen in the sample was calculated (Table 1).

[3] = system: HBV gene (HBV-DNA and RNA) in the serum; assay: Quantification of the HBV gene (DNA+RNA) in the serum by reverse transcription plus TaqMan PCR; type: in vivo, HBV patient; conditions: one month before administration 7.8 × 10^6
Procedure: (§1) In order to isolate the HBV gene in Dane particles (the infective HBV particle: the complete HBV particle), the HBV gene in a serum from a HBV patient was purified using High Pure Viral Nucleic Acid kit (Roche Diagnostics) in the following method. One hundred μl of the serum from a HBV patient who received lamivudine treatment was mixed with 100 μl of the serum from a normal healthy subject to prepare 200 μl of a serum sample. To the serum sample, 200 μl of a working solution {50 μl of poly(A) carrier RNA (4 mg/ml) and 2.5 ml of the binding buffer [6 M guanidine-HCl, 10 mM urea, 10 mM Tris-HCl (pH 4.4), 20% Triton X-100 (v/v)]} and 50 μl of Proteinase K (18 mg/ml) were added and mixed, and incubated at 72° C. for 10 minutes.
(§2) One hundred μl of isopropanol and the sample were mixed, and the mixture was transferred into a High Pure filter tube. It was centrifuged at 8000 rpm for 1 minute, and after discarding the flowthrough, 500 μl of the inhibitor removal buffer [5 M guanidine-HCl, 20 mM Tris-HCl (pH 6.6)] was injected and then centrifuged at 8000 rpm for 1 minute. After adding 450 μl of the washing buffer [20 mM NaCl, 2 mM Tris-HCl (pH 7.5)], it was centrifuged at 8000 rpm for 1 minute. Then it was washed again in 450 μl of the washing buffer and was centrifuged at 13000 rpm for 10 seconds. Fifty μl of sterile water was added to the filter tube, which was centrifuged at 8000 rpm for 1 minute, and the flowthrough was collected to prepare a solution of the HBV gene in the serum.
In order to measure the amount of HBV gene in the serum, the step of the reverse transcriptase reaction was added. To 10 μl of the HBV gene solution, 1 μl of 20 mM dNTP Mix (10 mM dATP, 10 mM dGTP, 10 mM dCTP, 10 mM dTTP) and 0.2 μl of 10 μM HBS-R primer were mixed, and after incubated at 65° C. for 5 minutes, it was quickly cooled on ice. […]
By applying 4 μl of this reaction mixture to the above HBV-DNA quantification system, the amount of the HBV gene in the serum, i.e. the total amount of HBV-DNA and RNA in the serum, can be measured. […]

[4] = system: HBV-DNA in the serum; assay: Quantification of HBV-DNA in the serum by TaqMan PCR, patient under lamivudine treatment; type: in vivo; conditions: one month before administration 2.4 × 10^6
Procedure: as §1, §2
The quantification of HBV-DNA in the serum was performed by the TaqMan PCR method that employs the Light Cycler (Roche Diagnostics). […]
The condition included pretreatment at 95° C. for 10 minutes, DNA denaturation at 95° C. for 5 seconds, annealing at 60° C. for 15 seconds and DNA synthesis at 72° C. for 8 seconds, and fluorescence emitted from the TaqMan probe was measured to quantify the amount of HBV-DNA in the serum (Table 1).

Nc1ccn([C@@H]2CS[C@H](CO)O2)c(=O)n1 [lamivudine]
Amount of HBV-RNA ([1]; 8 months after administration): 7.1 × 10^3 copies/ml | Amount of HBV-RNA ([1]; 19 months after administration): 2.2 × 10^3 copies/ml | Amount of HBV-RNA ([1]; one month after administration): 1.0×10^5 copies/ml | Amount of HBc antigen ([2]; 8 months after administration): 21 pg/mL | Amount of HBc antigen ([2]; 19 months after administration): 20 pg/mL | Amount of HBc antigen ([2]; one month after administration): 56 pg/mL | Amount of HBV gene ([3]; 8 months after administration): 7.2 × 10^3 copies/ml | Amount of HBV gene ([3]; 19 months after administration): 2.2 × 10^3 copies/ml | Amount of HBV gene ([3]; one month after administration): 1.1 × 10^5 copies/ml | Amount of HBV-DNA ([4]; 8 months after administration): 1.0 × 10^2 copies/ml | Amount of HBV-DNA ([4]; 19 months after administration): 0 copies/ml | Amount of HBV-DNA ([4]; one month after administration of lamivudine): 6.1×10^3 copies/ml
